Reference: patent publication US8530512B2, “Broad spectrum gram-positive antimicrobials and anthelmintics with efficacy against drug-resistant strains and Mycobacterium species” (priority 2004, dated 2013)
In brackets after ≈: the same amount, converted by molar mass. Where two headings read alike, the source gives them in different places.

How the values were obtained:
[1] = tested on: several strains of bacteria; test: Kirby-Bauer disc diffusion assay; assay type: cell-based; conditions: bioassay-directed fractionation
Protocol: The crude extract was then fractionated by flash column chromatography, using a 42 mm ID column, silica gel 60 as the stationary phase, and CH2Cl2 as the eluting solvent. Typically, 100-150, 10 mL fractions were collected and assayed for microbial growth inhibition. […] The column fractions, including the active component, were also analyzed by thin-layer chromatography (TLC) using Baker-flex® silica gel IB2-F plates (with fluorescent indicator) and CH2Cl2 as the eluting solvent (see FIG. 1).

Bacillus megaterium = test: microbe, parasite or virus in culture; assay type: cell-based; conditions: Priestia megaterium
[2] = tested on: Enterococcus faecium VRE 14; test: microbe, parasite or virus in culture; assay type: cell-based
Pseudomonas aeruginosa = test: microbe, parasite or virus in culture; assay type: cell-based
Mycobacterium bovis BCG = test: microbe, parasite or virus in culture; assay type: cell-based; conditions: Mycobacterium tuberculosis variant bovis BCG
C. elegans = test: motility assay; assay type: in vivo; set-up: key to Movement score, 1/1600 / Movement score, 1/800 / Movement score, 1/400 / Movement score, 1/200 / Movement score, 1/100: normal (−); slow (+); very slow (++); not motile/paralyzed (+++); conditions: Ive 1 ng/μL in all wells
Streptococcus pyogenes = test: microbe, parasite or virus in culture; assay type: cell-based
[3] = tested on: vancomycin-resistant enterococci; test: organism not typed; assay type: cell-based
[4] = tested on: Staphylococcus aureus ATCC 29213; test: microbe, parasite or virus in culture; assay type: cell-based; conditions: Staphylococcus aureus, ATCC29213
[5] = tested on: Enterococcus faecium VRE 1; test: microbe, parasite or virus in culture; assay type: cell-based
[6] = tested on: methicillin-resistant Staphylococcus aureus; test: microbe, parasite or virus in culture; assay type: cell-based
M. smegmatis = test: MIC assay; assay type: cell-based; conditions: Mycolicibacterium smegmatis; Table 6; read-out: MIC M. smegmatis
[7] = tested on: Corynebacterium diphtheriae Tox−; test: microbe, parasite or virus in culture; assay type: cell-based
Corynebacterium xerosis = test: microbe, parasite or virus in culture; assay type: cell-based
[8] = tested on: Gram-negative bacteria tested; test: organism not typed; assay type: cell-based; conditions: read-out: MICs
[9] = tested on: Staphylococcus aureus MRSA MC-1; test: microbe, parasite or virus in culture; assay type: cell-based; conditions: Staphylococcus aureus, MRSA
Streptococcus mitis = test: microbe, parasite or virus in culture; assay type: cell-based
Bacillus anthracis = test: microbe, parasite or virus in culture; assay type: cell-based
Listeria monocytogenes = test: microbe, parasite or virus in culture; assay type: cell-based
Escherichia coli = test: microbe, parasite or virus in culture; assay type: cell-based
Bacillus subtilis = test: microbe, parasite or virus in culture; assay type: cell-based
Bacillus cereus = test: microbe, parasite or virus in culture; assay type: cell-based
Streptococcus agalactiae = test: microbe, parasite or virus in culture; assay type: cell-based
[10] = tested on: Gram-positive bacteria tested; test: organism not typed; assay type: cell-based
Mycobacterium chelonae = test: MIC assay; assay type: cell-based; conditions: Table 6; read-out: MIC M. chelonae
Mycobacterium fortuitum = test: MIC assay; assay type: cell-based; conditions: Mycolicibacterium fortuitum; Table 6; read-out: MIC M. fortuitum
[11] = tested on: Enterococcus faecalis ATCC 29212; test: microbe, parasite or virus in culture; assay type: cell-based; conditions: Enterococcus faecalis, ATCC29212
C. elegans L1 larvae = test: developmental assay; assay type: in vivo; set-up: key to Developmental score, 1/1600 / Developmental score, 1/800 / Developmental score, 1/400 / Developmental score, 1/200 / Developmental score, 1/100: dead (+++); distressed (++); slightly delayed (+); the same as M9-only untreated wells (−); conditions: after four days, Ive 1 ng/μL in each well
[12] = tested on: Streptococcus pneumoniae ATCC 49619; test: microbe, parasite or virus in culture; assay type: cell-based; conditions: ATCC49619
[13] = tested on: Corynebacterium pseudodiphthericum; test: microbe, parasite or virus in culture; assay type: cell-based; conditions: Corynebacterium pseudodiphtheriticum
[14] = tested on: Staphylococcus aureus MRSA MC-4; test: microbe, parasite or virus in culture; assay type: cell-based
[15] = tested on: Staphylococcus aureus ATCC 25923; test: microbe, parasite or virus in culture; assay type: cell-based; conditions: ATCC25923

With `COc1cc(O)cc(/C=C/c2ccccc2)c1` [CL-3, 3-hydroxy-5-methoxystilbene] the growth inhibition [1] was “inhibited the growth”, the MIC (Bacillus megaterium) was 64 µg/mL (≈ 283 µM) and the MIC [2] was 16 µg/mL (≈ 70.7 µM). It also gave an MIC (Pseudomonas aeruginosa) greater than 128 µg/mL, an MIC (Mycobacterium bovis BCG; M bovis BCG, Example 3) of 25.6 µg/mL (≈ 113 µM) and an MIC (Mycobacterium bovis BCG; Table 2, Mycobacterium bovis BCG) of 26 µg/mL (≈ 115 µM). The “Movement score, 1/100” value (C. elegans; dilution 1/100 of stock (10.24 μg/μL; SK-03-92 1.024 μg/μL)) was “+++”, the “Movement score, 1/200” value (C. elegans; dilution 1/200 of stock (10.24 μg/μL; SK-03-92 1.024 μg/μL)) was “+++” and the “Movement score, 1/400” value (C. elegans; dilution 1/400 of stock (10.24 μg/μL; SK-03-92 1.024 μg/μL)) was “+”. The “Movement score, 1/800” value (C. elegans; dilution 1/800 of stock (10.24 μg/μL; SK-03-92 1.024 μg/μL)) was “−”, the “Movement score, 1/1600” value (C. elegans; dilution 1/1600 of stock (10.24 μg/μL; SK-03-92 1.024 μg/μL), overnight 20° C.) was “−” and the MIC (Streptococcus pyogenes; Streptococcus pyogenes) was 16 µg/mL (≈ 70.7 µM). The MIC S. pyogenes, G+ (Streptococcus pyogenes; Table 3) was 16 µg/mL (≈ 70.7 µM), the MIC [3] was 32 µg/mL (≈ 141 µM) and the MIC [4] was 32 µg/mL (≈ 141 µM). The MIC ([4]; Table 6, read-out: MIC S. aureus ATCC 29213) was 16 µg/mL (≈ 70.7 µM), the MIC ([5]; Enterococcus faecium, VRE) was 16 µg/mL (≈ 70.7 µM) and the MIC E. faecium VRE 1, G+ ([5]; Table 3) was 32 µg/mL (≈ 141 µM). The MIC [6] was 32 µg/mL (≈ 141 µM), the MIC (M. smegmatis) was 64 µg/mL (≈ 283 µM) and the MIC [7] was 32 µg/mL (≈ 141 µM). For the same compound, the MIC (Corynebacterium xerosis) was 16 µg/mL (≈ 70.7 µM), the MIC [8] was greater than 128 µg/mL and the MIC [9] was 32 µg/mL (≈ 141 µM). The MIC ([9]; read-out: MIC S. aureus MC-1) was 16 µg/mL (≈ 70.7 µM), the MIC (Streptococcus mitis) was 64 µg/mL (≈ 283 µM) and the MIC (Bacillus anthracis) was 4 µg/mL (≈ 17.7 µM). The MIC (Listeria monocytogenes) was 32 µg/mL (≈ 141 µM), the MIC (Escherichia coli) was greater than 128 µg/mL and the MIC (Bacillus subtilis) was 16 µg/mL (≈ 70.7 µM). The MIC (Bacillus cereus; Bacillus cereus) was 16 µg/mL (≈ 70.7 µM), the MIC B. cereus, G+ (anthrax surrogate) (Bacillus cereus; Table 3) was 16 µg/mL (≈ 70.7 µM) and the MIC (Streptococcus agalactiae) was 32 µg/mL (≈ 141 µM). The “growth inhibition of Gram-positive bacteria” value [10] was “inhibit the growth of all Gram-positive bacteria tested”, the MIC (Mycobacterium chelonae) was 16 µg/mL (≈ 70.7 µM) and the MIC (Mycobacterium fortuitum) was 16 µg/mL (≈ 70.7 µM). For the same compound, the MIC [11] was 16 µg/mL (≈ 70.7 µM), the “Developmental score, 1/100” value (C. elegans L1 larvae; dilution 1/100) was “+++” and the “Developmental score, 1/200” value (C. elegans L1 larvae; dilution 1/200) was “+”. The “Developmental score, 1/400” value (C. elegans L1 larvae; dilution 1/400) was “−”, the “Developmental score, 1/800” value (C. elegans L1 larvae; dilution 1/800) was “−” and the “Developmental score, 1/1600” value (C. elegans L1 larvae; dilution 1/1600) was “−”. It also gave an MIC [12] of 8 µg/mL (≈ 35.4 µM), an MIC [13] of 16 µg/mL (≈ 70.7 µM) and an MIC [14] of 32 µg/mL (≈ 141 µM). The MIC [15] was 32 µg/mL (≈ 141 µM).
